Assay results taken from paper PMC12135066, “Design and Preclinical Evaluation of Novel uPAR-Targeting Radiopeptides Modified with an Albumin-Binding Entity” (Molecular Pharmaceutics, 2025).
Blank lines part the entries; values can stand above or below the compound they belong to.

Tests used:
human uPAR = molecular target: T1, human uPAR (Homo sapiens, UniProt Q03405); test: uPAR-binding affinity (KD values), saturation experiments with HEK-uPAR cells; settings: saturation binding on HEK-uPAR cells, on ice (4 °C) 1 h, 1–1600 nM radiopeptide, ± AE105 40 µM; γ-counter; nonlinear regression; average ± SD, n=3
T1 construct: host or cells: HEK cells (HEK-uPAR)
Method in brief: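 HEK-uPAR cells incubated 1 h at 4 °C (on ice) with radiopeptide at 1–1600 nM final, with or without 40 μM AE105 as blocker. Cell-bound activity counted in a γ-counter after NaOH lysis; KD from nonlinear regression of specific binding (total minus unspecific), mean ± SD of n = 3.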

[1] = Stability of the radiopeptides in mouse blood plasma; settings: mouse; for remaining at 1 h, 10 MBq/200 µL / remaining at 24 h, 10 MBq/200 µL: blood plasma; for remaining at 4 h, 10 MBq/200 µL: mouse blood plasma
Method: The radiopeptides (50 MBq/nmol) stabilized with L-ascorbic acid were diluted in mouse and human blood plasma and incubated at 37 °C. Aliquots were taken after 1, 4, and 24 h and analyzed using reversed-phase thin-layer chromatography (TLC) (Supporting Information).
aProduct peak expressed as percentage of the sum of integrated peak areas of the entire chromatogram relative to
the value obtained immediately after labeling (set as 100%), average ± standard deviation (SD) (n=3).
Stability of the Radiopeptides in Mouse and Human Blood Plasma
Purpose: The stability of the radiopeptides was assessed in mouse and human blood plasma as an
indication for their in vivo stability.
Methods: The radiopeptides (50 MBq/nmol) stabilized with L-ascorbic acid were diluted in mouse
blood plasma (Lot: 32321, Rockland Immunochemicals Inc., U.S.A.) or in human blood plasma
(Stiftung Blutspende SRK Aargau -Solothurn, Switzerland) at a concentration of 10 MBq/200 µL and
incubated at 37 °C over a 24 h time period. Control samples were prepared by diluting the radiopeptides
in saline at the same activity concentration. Aliquots of each dilution were taken after 1 h, 4 h, and 24 h
(2 µL, ~100 kBq) and investigated employing thin layer chromatography (TLC) methods on reversed-
phase TLC plates (MERCK Analytical Chromatography, TLC Silica gel 60 RP -18 F254s) as stationary
phase and a 3/7 (v/v) mixture of acetonitrile /citrate buffer (0.1 M, pH 5.5) as mobile phase. A dilution
of [177Lu]LuCl3/HCl 0.04 M (10 MBq/200 µL) was added on each TLC plate. The developed and dried
TLC plates were exposed to a phosphor screen (Super resolution screen PSR10450013, PerkinElmer)
for 1 min. The screen was read with a Cyclone Plus phosphor imager (PerkinElmer) and the peak
quantification was performed using OptiQuant Software (version 5.0).

[2] = tested on: mouse serum albumin (MSA); test: Albumin-binding properties in mouse blood plasma (ultrafiltration assay); settings: for Relative albumin-binding affinity, mouse blood plasma: ultrafiltration (Amicon, 10 kDa), mouse blood plasma dilutions in PBS pH 7.4, [MSA]-to-[radiopeptide] 0.01–12500, 0.006 nmol, 37 °C 30 min, γ-counter, inverse ratio of B50, [177Lu]Lu-uPAR-01 set as 1.00, average curve of 3 experiments
Method: (§1) The relative albumin-binding affinities of the radiopeptides in mouse and human blood plasma were determined using an ultrafiltration assay with Amicon centrifugal filters (cutoff of 10 kDa; Merck Millipore), as previously reported (Supporting Information). A fixed amount of the respective radiopeptide (15 μL, ∼300 kBq, 0.006 nmol) was added to a defined volume (150 μL) of mouse and human blood plasma dilutions to obtain [mouse serum albumin (MSA)]-to-[radiopeptide] and [human serum albumin (HSA)]-to-[radiopeptide] molar concentration ratios of 0.01–12,500 and 0.01–20,000, respectively. The data were analyzed using a semilogarithmic Hill plot with the maximum binding set as 100% (GraphPad Prism software, version 8.3.1).
(§2) Determination of the Albumin-Binding Properties
(§3) Purpose: The radiopeptides were investigated with regard to their albumin-binding capabilities in vitro
(§4) as a measure to predict blood retention in vivo.
(§5) Methods: The relative albumin-binding affinity of the radiopeptides in mouse blood plasma (Rockland
(§6) Immunochemicals, Inc., U.S.A.) and human blood plasma (Stiftung Blutspende SRK Aargau-
(§7) Solothurn, Switzerland) were determined using an ultrafiltration method. The amount of mouse serum
(§8) albumin (MSA) and human serum albumin (HSA) in mouse and human blood plasma was defined as
(§9) 550 μM and 800 μM, respectively, based on measurements using a dry chemistry analyzer (DRI-CHEM
(§10) 4000i, FUJIFILM, Japan). A fixed amount of radiopeptide (50 MBq/nmol, ~300 kBq, 15 μL, 0.006
(§11) nmol) was added to a defined volume (150 μL) of mouse and human blood plasma and various dilutions
(§12) thereof in PBS pH 7.4, resulting in defined [MSA]-to-[radiopeptide] or [HSA]-to-[radiopeptide] molar
(§13) concentration ratios ranging from 0.01 ‒12500 and 0.01‒20000, respectively, followed by incubation of
(§14) the samples at 37 °C for 30 min. Ice-cold PBS (150 µL, pH 7.4) was added before loading the blood
(§15) plasma samples on Amicon centrifugal filters (cut -off of 10 kDa; Merck Millipore) followed by
(§16) centrifugation (14000 rcf, 30 min, 4 °C) to allow the separation of the plasma protein -bound from the
(§17) plasma-unbound (free) fractions of each sample. The inserts of the filter devices were inverted and centrifuged at 200 rcf for 3 min to recover the protein -bound radiopeptide. The activity in the filtrate
(§18) and filter unit was measured in a γ-counter (1480 Wizard, PerkinElmer) and the counts were combined
(§19) assuming that the fraction retained in the filter membrane was not bound to proteins. The protein -bound
(§20) fraction was expressed as percentage of the whole activity (i.e. plasma protein -bound activity, activity
(§21) measured in the filtrate and activity measured in the filter (set as 100%) ). The data were analyzed using
(§22) a semi-logarithmic plot assuming a maximum binding of 100%. The Hill equation was fitted to the data
(§23) points and the half -maximum binding ( B50) based on the average curve obtained from three independent
(§24) experiments (GraphPad Prism software, version 8.3 .1). The relative albumin-binding affinit ies of the
(§25) reference compound, whose relative binding affinity was set as 1.0. The results were presented as the
(§26) B50 value obtained from the average curve from 3 independent experiments.

[3] = Radiolytic stability of the radiopeptides in saline with L-ascorbic acid; settings: 50 MBq/nmol in saline, 150 MBq/300 µL, L-ascorbic acid (3 mg, 20 µL) and NaOAc (0.5 M, 30 µL), HPLC, product peak relative to t=0 (100%), average ± SD, n=3
Method: The radiolytic stability of the radiopeptides (50 MBq/nmol) in saline (150 MBq/300 μL) was assessed in the absence and presence of L-ascorbic acid (3 mg added in a volume of 20 μL). After an incubation period of 1, 4, and 24 h, aliquots of the solutions were analyzed using HPLC. The integrated peak area representing the intact radiopeptide was expressed as the percentage of the sum of all peaks of the chromatogram. The final amount of intact radiopeptide was expressed as the percentage of the product peak obtained at t = 0, which was set as 100% (Supporting Information).
The radiolytic stability of [177Lu]Lu-DOTA-AE105 and the new 177Lu-labeled uPAR-targeting
radiopeptides (50 MBq/nmol) was assessed in vitro in the formulated solution . The radiopeptide s were
diluted in saline to obtain an activity concentration of 150 MBq in 300 µL in the presence of L-ascorbic
acid (3 mg, 20 µL) and NaOAc (0.5 M, 30 µL) to compensate for the acidic pH. Aliquots of the dilutions
were analyzed using HPLC after incubation periods of 1 h, 4 h and 24 h . The integrated peak area
measured for the intact radioligand peak was expressed as the percentage of the sum of the integrated
peak areas of each peak present in the chromatogram. The final amount of intact radiopeptide at t = 1 h,
4 h and 24 h was expressed by correcting the obtained percentage of the product peak to this peak
obtained at t = 0, which was set as 100%.

[4] = Biodistribution studies in HEK-uPAR xenograft-bearing nude mice; settings: female, mouse, 0.5 nmol, total radioactivity, 5 MBq, 0.5 nmol, decay-corrected, average ± SD, n=3 animals; for tissue uptake at 24 h: 24 h p.i.; for tissue uptake at 4 h: 4 h p.i.
[5] = tested on: HEK-uPAR xenograft-bearing nude mice; test: as above; settings: average ± SD, n=3 animals
[6] = tested on: human serum albumin (HSA); test: Albumin-binding properties in human blood plasma (ultrafiltration assay); settings: for Relative albumin-binding affinity, human blood plasma: ultrafiltration (Amicon, 10 kDa), human blood plasma dilutions in PBS pH 7.4, [HSA]-to-[radiopeptide] 0.01–20000, 0.006 nmol, 37 °C 30 min, γ-counter, inverse ratio of B50, [177Lu]Lu-uPAR-01 set as 1.00, average curve of 3 experiments
Method: as §1, §2, §3, §4, §5, §6, §7, §8, §9, §10, §11, §12, §13, §14, §15, §16, §17, §18, §19, §20, §21, §22, §23, §24, §25, §26

[7] = n-Octanol/PBS distribution coefficients (logD values); settings: n-octanol/PBS pH 7.4, pH 7.4
Method: The radiopeptides diluted in phosphate-buffered saline (PBS) pH 7.4 (25 μL, ∼0.5 MBq, 0.01 nmol) were added to a mixture of PBS pH 7.4 (1475 μL) and n-octanol (1500 μL). The vials were vortexed vigorously for 1 min, followed by centrifugation (560 rcf, 6 min) for phase separation. Aliquots were taken from each phase and measured in a γ-counter (1480 Wizard, PerkinElmer). The distribution coefficients were calculated as the logarithmic value of the ratio of counts per minute (cpm) measured in the n-octanol phase relative to the cpm measured in the PBS phase.
Methods: The logD value of all radiopeptides was determined in a mixture of n-octanol and phosphate
buffered saline (PBS) pH 7.4 using phase separation followed by liquid-liquid extraction.
polystyrene radioimmunoassay (RIA) tubes were prepared for each radiopeptide with 1.5 mL n-octanol
and 1.475 mL PBS pH 7.4. The RIA tubes were rigorously vortexed and subsequently let to stand so
that the phase separation could take place. The radiopeptides (50 MBq/nmol) were diluted with PBS
pH 7.4 to obtain an activity concentration of 10 MBq/0.5 mL. A volume of 25 μL of these solutions
was added to each RIA tube (25 µL, ~0.5 MBq, 0.01 nmol) followed by vortexing for 1 min.
separation was achieved by centrifugation at 560 rcf for 6 min. The activity in the n-octanol and PBS
phase, respectively, was measured in a γ-counter (Wallac Wizard 1480, PerkinElmer).
coefficients were calculated as the logarithm of the ratio of counts per minute (cpm) measured in the n-
octanol phase relative to the cpm measured in the PBS pH 7.4 phase.
as described above three independent times for each radiopeptide.

[8] = CD1/nude, HEK-uPAR xenograft, 5 MBq (0.5 nmol), HEK-uPAR xgft
[9] = CD1/nude, blood, 5 MBq (0.5 nmol)
[10] = CD1/nude, bone, 5 MBq (0.5 nmol)
[11] = CD1/nude, brain, 5 MBq (0.5 nmol)
[12] = CD1/nude, heart, 5 MBq (0.5 nmol)
[13] = CD1/nude, intestines, 5 MBq (0.5 nmol)
[14] = CD1/nude, kidneys, 5 MBq (0.5 nmol)
[15] = CD1/nude, liver, 5 MBq (0.5 nmol)
[16] = CD1/nude, lung, 5 MBq (0.5 nmol)
[17] = CD1/nude, muscle, 5 MBq (0.5 nmol)
[18] = CD1/nude, pancreas, 5 MBq (0.5 nmol)
[19] = CD1/nude, salivary glands, 5 MBq (0.5 nmol)
[20] = CD1/nude, spleen, 5 MBq (0.5 nmol)
[21] = CD1/nude, stomach, 5 MBq (0.5 nmol)

T1 sequence (Q03405 23-335): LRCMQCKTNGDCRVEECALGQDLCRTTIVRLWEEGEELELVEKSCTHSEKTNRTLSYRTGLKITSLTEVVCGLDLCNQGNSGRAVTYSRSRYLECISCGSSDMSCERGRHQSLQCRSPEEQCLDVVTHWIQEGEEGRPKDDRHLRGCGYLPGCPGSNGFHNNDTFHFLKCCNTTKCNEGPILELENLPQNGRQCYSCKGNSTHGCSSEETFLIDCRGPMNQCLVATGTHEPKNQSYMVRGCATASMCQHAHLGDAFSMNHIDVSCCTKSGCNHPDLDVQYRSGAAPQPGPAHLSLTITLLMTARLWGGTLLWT

Kd (human uPAR): 0.01 ± 0.005 µM
remaining at 1 h, 10 MBq/200 µL [1]: 99 ± 1%
remaining at 24 h, 10 MBq/200 µL [1]: 98 ± 2%
remaining at 4 h, 10 MBq/200 µL [1]: 98 ± 2%
fold lower albumin-binding affinity than [177Lu]Lu-uPAR-01 ([2]; mouse blood plasma, ultrafiltration): 1.6 fold
Relative albumin-binding affinity, mouse blood plasma [2]: 0.61
radiolytic stability, % intact radiopeptide ([3]; 1 h): 99 ± 2%
radiolytic stability, % intact radiopeptide ([3]; 4 h): 97 ± 1%
radiolytic stability after 24 h, intact radiopeptide [%] [3]: 93 ± 1%
tissue uptake at 24 h ([4]; CD1/nude (Crl:CD1-Foxn nu), HEK-uPAR xenograft, HEK-uPAR xgft): 3.1 ± 0.7 %ID/g
tissue uptake at 4 h [4, 8]: 5.1 ± 1 %ID/g
tissue uptake at 4 h [4, 9]: 12 ± 1 %ID/g
tissue uptake at 24 h [4, 9]: 4.6 ± 0.3 %ID/g
tissue uptake at 4 h [4, 10]: 1.1 ± 0.1 %ID/g
tissue uptake at 24 h [4, 10]: 0.67 ± 0.06 %ID/g
tissue uptake at 4 h [4, 11]: 0.27 ± 0.01 %ID/g
tissue uptake at 24 h [4, 11]: 0.11 ± 0.02 %ID/g
tissue uptake at 4 h [4, 12]: 4.1 ± 0.2 %ID/g
tissue uptake at 24 h [4, 12]: 1.6 ± 0.1 %ID/g
tissue uptake at 4 h [4, 13]: 1.6 ± 0.1 %ID/g
tissue uptake at 24 h [4, 13]: 0.73 ± 0.07 %ID/g
tissue uptake at 4 h [4, 14]: 3.6 ± 0.2 %ID/g
tissue uptake at 24 h [4, 14]: 1.6 ± 0.1 %ID/g
tissue uptake at 4 h [4, 15]: 5.2 ± 0.6 %ID/g
tissue uptake at 24 h [4, 15]: 1.1 ± 0.1 %ID/g
tissue uptake at 4 h [4, 16]: 7 ± 0.5 %ID/g
tissue uptake at 24 h [4, 16]: 2.6 ± 0.4 %ID/g
tissue uptake at 4 h [4, 17]: 1.1 ± 0.1 %ID/g
tissue uptake at 24 h [4, 17]: 0.41 ± 0.04 %ID/g
tissue uptake at 4 h [4, 18]: 1.4 ± 0.2 %ID/g
tissue uptake at 24 h [4, 18]: 0.62 ± 0.07 %ID/g
tissue uptake at 4 h [4, 19]: 2.5 ± 0.3 %ID/g
tissue uptake at 24 h [4, 19]: 1.1 ± 0.1 %ID/g
tissue uptake at 4 h [4, 20]: 1.5 ± 0.1 %ID/g
tissue uptake at 24 h [4, 20]: 0.82 ± 0.1 %ID/g
tissue uptake at 4 h [4, 21]: 1.3 ± 0.1 %ID/g
tissue uptake at 24 h [4, 21]: 0.64 ± 0.01 %ID/g
Xenograft-to-blood ratio ([5]; 4 h p.i.): 0.42 ± 0.07
Xenograft-to-kidney ratio ([5]; 4 h p.i.): 1.4 ± 0.2
Xenograft-to-liver ratio ([5]; 4 h p.i.): 0.98 ± 0.10
Xenograft-to-blood ratio ([5]; 24 h p.i.): 0.66 ± 0.12
Xenograft-to-kidney ratio ([5]; 24 h p.i.): 1.9 ± 0.3
Xenograft-to-liver ratio ([5]; 24 h p.i.): 2.9 ± 0.3
fold lower albumin-binding affinity than [177Lu]Lu-uPAR-01 ([6]; human blood plasma, ultrafiltration): 2.4 fold
Relative albumin-binding affinity, human blood plasma [6]: 0.43
logD [7]: 0.24 ± 0.09
SMILES: CC(C)C[C@H](NC(=O)[C@H](Cc1ccc(O)cc1)NC(=O)[C@@H](CCCNC(=N)N)NC(=O)[C@@H](CO)NC(=O)[C@H](Cc1ccccc1)NC(=O)[C@H](CC1CCCCC1)NC(=O)[C@H](CC(=O)O)NC(=O)CCOCCOCCOCCOCCNC(=O)[C@H](CCCCNC(=O)CCCc1ccc(I)cc1)NC(=O)CN1CCN(CC(=O)O)CCN(CC(=O)O)CCN(CC(=O)O)CC1)C(=O)N[C@@H](Cc1c[nH]c2ccccc12)C(=O)N[C@@H](CO)C(N)=O [[^177Lu]Lu-uPAR-05, metal not drawn]

Kd (human uPAR): 0.057 ± 0.021 µM
remaining at 1 h, 10 MBq/200 µL [1]: 101 ± 2%
remaining at 24 h, 10 MBq/200 µL [1]: 98%
remaining at 4 h, 10 MBq/200 µL [1]: 99 ± 3%
Relative albumin-binding affinity, mouse blood plasma [2]: 1.08
radiolytic stability, % intact radiopeptide ([3]; 1 h): 99 ± 1%
radiolytic stability, % intact radiopeptide ([3]; 4 h): 97 ± 2%
radiolytic stability after 24 h, intact radiopeptide [%] [3]: 95 ± 2%
tissue uptake at 4 h [4, 8]: 3.6 ± 0.2 %ID/g
tissue uptake at 24 h [4, 8]: 4.3 ± 1.2 %ID/g
tissue uptake at 4 h [4, 9]: 13 ± 1 %ID/g
tissue uptake at 24 h [4, 9]: 7 ± 0.9 %ID/g
tissue uptake at 4 h [4, 10]: 1.2 ± 0.1 %ID/g
tissue uptake at 24 h [4, 10]: 0.85 ± 0.04 %ID/g
tissue uptake at 4 h [4, 11]: 0.26 ± 0.02 %ID/g
tissue uptake at 24 h [4, 11]: 0.14 ± 0.01 %ID/g
tissue uptake at 4 h [4, 12]: 4.4 ± 0.6 %ID/g
tissue uptake at 24 h [4, 12]: 3 ± 0.3 %ID/g
tissue uptake at 4 h [4, 13]: 1.6 ± 0.1 %ID/g
tissue uptake at 24 h [4, 13]: 0.99 ± 0.21 %ID/g
tissue uptake at 4 h [4, 14]: 5.9 ± 0.4 %ID/g
tissue uptake at 24 h [4, 14]: 5.9 ± 1.2 %ID/g
tissue uptake at 4 h [4, 15]: 3.9 ± 0.3 %ID/g
tissue uptake at 24 h [4, 15]: 3.1 ± 0.4 %ID/g
tissue uptake at 4 h [4, 16]: 6.2 ± 0.7 %ID/g
tissue uptake at 24 h [4, 16]: 4.3 ± 0.5 %ID/g
tissue uptake at 4 h [4, 17]: 1 ± 0.1 %ID/g
tissue uptake at 24 h [4, 17]: 0.73 ± 0.04 %ID/g
tissue uptake at 4 h [4, 18]: 1.5 ± 0.1 %ID/g
tissue uptake at 24 h [4, 18]: 1 ± 0.1 %ID/g
tissue uptake at 4 h [4, 19]: 2.8 ± 0.2 %ID/g
tissue uptake at 24 h [4, 19]: 2.4 ± 0.4 %ID/g
tissue uptake at 4 h [4, 20]: 1.9 ± 0.1 %ID/g
tissue uptake at 24 h [4, 20]: 2.3 ± 0.3 %ID/g
tissue uptake at 4 h [4, 21]: 1.5 ± 0.1 %ID/g
tissue uptake at 24 h [4, 21]: 1 ± 0.1 %ID/g
Xenograft-to-blood ratio ([5]; 4 h p.i.): 0.28 ± 0.01
Xenograft-to-kidney ratio ([5]; 4 h p.i.): 0.62 ± 0.01
Xenograft-to-liver ratio ([5]; 4 h p.i.): 0.93 ± 0.08
Xenograft-to-blood ratio ([5]; 24 h p.i.): 0.61 ± 0.09
Xenograft-to-kidney ratio ([5]; 24 h p.i.): 0.73 ± 0.15
Xenograft-to-liver ratio ([5]; 24 h p.i.): 1.4 ± 0.2
Relative albumin-binding affinity, human blood plasma [6]: 1.07
logD [7]: -0.29
SMILES: CC(C)C[C@H](NC(=O)[C@H](Cc1ccc(O)cc1)NC(=O)[C@@H](CCCNC(=N)N)NC(=O)[C@@H](CO)NC(=O)[C@H](Cc1ccccc1)NC(=O)[C@H](CC1CCCCC1)NC(=O)[C@H](CC(=O)O)NC(=O)[C@H](CCCCNC(=O)CCCc1ccc(I)cc1)NC(=O)[C@@H](N)CCCCNC(=O)CN1CCN(CC(=O)O)CCN(CC(=O)O)CCN(CC(=O)O)CC1)C(=O)N[C@@H](Cc1c[nH]c2ccccc12)C(=O)N[C@@H](CO)C(N)=O [[^177Lu]Lu-uPAR-04, metal not drawn]
